# According to patent US20110178168A1, “COUMARIN COMPOUNDS FOR THE TREATMENT OF CARDIOVASCULAR DISEASES AND A PROCESS FOR PREPARING THE SAME” (priority 2008, published 2011):
# Legend:
# [1] = molecular target: T1, Calreticulin transacetylase (CRTAase) (Homo sapiens, UniProt P27797); assay: TAase (calreticulin transacetylase) activity; type: biochemical
# T1 sequence (P27797 18-417): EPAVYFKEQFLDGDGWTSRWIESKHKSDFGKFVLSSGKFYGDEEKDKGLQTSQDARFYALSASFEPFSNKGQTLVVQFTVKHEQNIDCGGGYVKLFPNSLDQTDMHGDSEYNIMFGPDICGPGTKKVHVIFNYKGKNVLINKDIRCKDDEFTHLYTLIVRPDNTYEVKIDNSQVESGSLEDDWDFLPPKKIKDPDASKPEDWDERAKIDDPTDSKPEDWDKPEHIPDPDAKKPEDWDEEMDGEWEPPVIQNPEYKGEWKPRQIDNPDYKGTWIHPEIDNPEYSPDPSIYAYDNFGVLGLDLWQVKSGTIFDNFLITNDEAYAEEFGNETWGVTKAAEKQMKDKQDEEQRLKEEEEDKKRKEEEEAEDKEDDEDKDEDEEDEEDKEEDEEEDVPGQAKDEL
# Description: (§1) Platelet Nitric Oxide Synthase (NOS) is remakably activated by way of acetylation catalyzed by Calreticulin transacetylase (CRTAase) leading to robust enhancement of NO in platelets. Compounds of Formula I enhance NO in platelets. Due to this activity, these compounds enhance the NOS leading to enhancement of platelet NO which contributes to the antiplatelet action. […] They are effective in causing the inhibition of ADP induced as well as collagen induced platelet aggregation both invitro and exvivo.
# [2] = system: intracellular nitric oxide level in platelets; assay: Enhancement of nitric oxide in platelets; type: cell-based
# Description: Nitric oxide is known to mediate a number of pharmacological actions such as vasorelaxation, lowereing of blood pressure and inhibition of platelet aggregation. […] The specific acyl group attached to the coumarin derivative is attributed to the enhancement of intracellular nitric oxide level leading to the inhibition of ADP induced platelet aggregation.
# as §1
# platelets [3] = assay: ADP-induced platelet aggregation ex vivo (platelet rich plasma); type: in vivo
# Description: C. Preparation of Platelet Rich Plasma for the EX VIVO Studies
# platelets [4] = assay: ADP-induced platelet aggregation in vitro (platelet rich plasma); type: cell-based
# Description: A. Preparation of Platelet Rich, Plasma for the IN VITRO Studies
Structure (SMILES),TAase activity (Units) [1],Enhancement of nitric oxide (folds) [2],ADP-induced platelet aggregation (% inhibition) EX VIVO (platelets [3]) [%],ADP-induced platelet aggregation (% inhibition) IN VITRO (platelets [4])
"CC(=O)Oc1ccccc1C(=O)O [ASPIRIN, Aspirin]",Nil,Nil,55,Nil
COC(=O)C(c1ccccc1Cl)N1CCc2sccc2C1 (centres unmarked),Nil,Nil,65,Nil
